Source: patent US11000033B2, “Ketone or oxime compound, and herbicide” (NISSAN CHEMICAL CORPORATION, priority 2014, dated 2021)

Key:
Assay type in all cases: in vivo
rice = assay: Test Example 4: effect on crop by soil treatment (symbol b)
Procedure, shortened: (§1)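 Steps: fill box with sterilized diluvial soil; sow seed spot-like; cover with ~1.5 cm soil; grow in greenhouse (25° C. to 30° C.).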

Apera spica-venti = assay: Test Example 5: herbicidal effect by foliage application, plastic box (symbol L); details: 320 g/ha, 3 weeks after application
Procedure, shortened: (§2)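 Visual herbicidal score, taken three weeks post-application, of seedlings sprayed on the foliage with water-diluted emulsion at a predetermined amount; plants were 14 days old, greenhouse-raised at 25° C. to 30° C.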

Veronica persica = assay: Test Example 5: herbicidal effect by foliage application, plastic box (symbol R); details: 320 g/ha, 3 weeks after application
Procedure, shortened: as §2

Cyperus difformis = assay: Test Example 3: herbicidal effect by foliage application, Wagner pot (symbol E); details: application herbicide amount 320 g/ha
Procedure, shortened: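 Plants sown in submerged alluvial soil (water depth 0.1–0.5 cm) in a 25–30 °C greenhouse and grown 14 days. An emulsion of the compound diluted in water to a set herbicide amount was sprayed uniformly on foliage. Effect on each plant scored 3 weeks after application.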

Digitaria ciliaris [1] = assay: Test Example 4: herbicidal effect by soil treatment (symbol F)
Procedure, shortened: (§3)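 Seeds were sown in sterilized diluvial soil, covered with about 1.5 cm of soil, and the soil surface was sprayed with a water-diluted emulsion of the compound at a predetermined rate. Plants grew in a greenhouse at 25° C. to 30° C.; effects were scored visually 3 weeks after application.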

corn = assay: Test Example 4: effect on crop by soil treatment (symbol c)
Procedure, shortened: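 Greenhouse culture at 25° C. to 30° C. followed sowing of seed in spots on sterilized diluvial soil with a soil cover close to 1.5 cm thick.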

[2] = test system: directly sowed rice plant; assay: Test Example 3: effect on crop by foliage application, Wagner pot (symbol b); details: application herbicide amount 320 g/ha
Procedure, shortened: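 Wagner pot (1/10000 are), alluvial soil, submerged 0.1–0.5 cm; sown E. crus-galli var. crus-galli, L. chinensis, C. difformis, rice; greenhouse 25–30 °C.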

beet [3] = assay: Test Example 4: effect on crop by soil treatment (symbol f)
Procedure, shortened: as §1

Alopecurus myosuroides = assay: Test Example 5: herbicidal effect by foliage application, plastic box (symbol J); details: 320 g/ha, 3 weeks after application
Procedure, shortened: as §2

wheat = assay: Test Example 4: effect on crop by soil treatment (symbol e)
Procedure, shortened: as §1

[4] = test system: Echinochloa crus-galli var. crus-galli; assay: Test Example 4: herbicidal effect by soil treatment (symbol H)
Procedure, shortened: as §3

Abutilon theophrasti = assay: Test Example 4: herbicidal effect by soil treatment (symbol M)
Procedure, shortened: as §3

Setaria viridis = assay: Test Example 5: herbicidal effect by foliage application, plastic box (symbol G); details: 320 g/ha, 3 weeks after application
Procedure, shortened: as §2

beet [5] = assay: Test Example 5: effect on crop by foliage application, plastic box (symbol f); details: 320 g/ha, 3 weeks after application
Procedure, shortened: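 Crop and weed seeds sown in spots in sterilized diluvial soil in plastic boxes and covered with about 1.5 cm soil. Plants raised in a greenhouse at 25° C. to 30° C. for foliar application.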

[6] = test system: Echinochloa oryzacola Vasing.; assay: Test Example 2: herbicidal activity, application during weed generation in submerged conditions (symbol A); details: Table 23; application herbicide amount 320 g/ha; grade 0-5 by criteria of Test Example 1
Procedure, shortened: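 Seeds sown in flooded alluvial soil (4 cm water) were grown in a 25-30° C greenhouse. At the one- to two-leaf stage, diluted emulsion of compound was applied to the water surface at a predetermined rate. Effect was scored 3 weeks later.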

Lolium multiflorum Lam. = assay: Test Example 4: herbicidal effect by soil treatment (symbol K)
Procedure, shortened: as §3

Digitaria ciliaris [7] = assay: Test Example 5: herbicidal effect by foliage application, plastic box (symbol F); details: 320 g/ha, 3 weeks after application
Procedure, shortened: as §2

[8] = application herbicide amount 320 g/ha

Row | SMILES | herbicidal effect on E, grade 0-5 (Cyperus difformis) | effect on crop b (directly sowed rice plant), grade 0-5 [2] | Herbicidal effect grade, A: Echinochloa oryzacola Vasing. [6] | b (directly sowed rice plant) effect on crop grade (rice; [8]) | L: Apera spica-venti, herbicidal effect grade (Apera spica-venti) | R: Veronica persica, herbicidal effect grade (Veronica persica) | F (Digitaria ciliaris) herbicidal effect grade (Digitaria ciliaris [1]; [8]) | c (corn) effect on crop grade (corn; [8]) | f (beet) effect on crop grade (beet [3]; [8]) | J: Alopecurus myosuroides, herbicidal effect grade (Alopecurus myosuroides) | e (wheat) effect on crop grade (wheat; [8]) | H (Echinochloa crus-galli var. crus-galli) herbicidal effect grade [4, 8] | M (Abutilon theophrasti) herbicidal effect grade (Abutilon theophrasti; [8]) | G: Setaria viridis, herbicidal effect grade (Setaria viridis) | f: beet, effect on crop grade (beet [5]) | K (Lolium multiflorum Lam.) herbicidal effect grade (Lolium multiflorum Lam.; [8]) | F: Digitaria ciliaris, herbicidal effect grade (Digitaria ciliaris [7]) | also measured
1 | CON=C(C)CC1CC(OC(=O)COc2ccc(C(C)=O)cc2)=C(c2c(C)cc(C)cc2C)C1=O (centres unmarked) [1-080] | 5 (Herbicidal ratio of 90% or more (almost completely withered)) | 5 (Herbicidal ratio of 90% or more (almost completely withered)) | 4 (Herbicidal ratio of 70% or higher and lower than 90%) |  |  |  |  |  |  |  |  |  |  |  |  |  |  | b: directly sowed rice plant, effect grade on crop (rice; 320 g/ha): 5 (Herbicidal ratio of 90% or more (almost completely withered)); L: Apera spica-venti, herbicidal effect (criteria 0-5) (Apera spica-venti): 5 (Herbicidal ratio of 90% or more (almost completely withered)); R: Veronica persica, herbicidal effect (criteria 0-5) (Veronica persica): 1 (Herbicidal ratio of 5% or higher and lower than 20%); F: Digitaria ciliaris, herbicidal effect grade (Digitaria ciliaris [1]; 320 g/ha): 5 (Herbicidal ratio of 90% or more (almost completely withered)); c: corn, effect grade on crop (corn; 320 g/ha): 4 (Herbicidal ratio of 70% or higher and lower than 90%); f: beet, effect grade on crop (beet [3]; 320 g/ha): 0 (Herbicidal ratio of 5% or lower (almost no effect)); J: Alopecurus myosuroides, herbicidal effect (criteria 0-5) (Alopecurus myosuroides): 5 (Herbicidal ratio of 90% or more (almost completely withered)); e: wheat, effect grade on crop (wheat; 320 g/ha): 4 (Herbicidal ratio of 70% or higher and lower than 90%); H: Echinochloa crus-galli var. crus-galli, herbicidal effect grade ([4]; 320 g/ha): 5 (Herbicidal ratio of 90% or more (almost completely withered)); M: Abutilon theophrasti, herbicidal effect grade (Abutilon theophrasti; 320 g/ha): 4 (Herbicidal ratio of 70% or higher and lower than 90%); G: Setaria viridis, herbicidal effect (criteria 0-5) (Setaria viridis): 5 (Herbicidal ratio of 90% or more (almost completely withered)); f: beet, effect on crop (criteria 0-5) (beet [5]): 0 (Herbicidal ratio of 5% or lower (almost no effect)); K: Lolium multiflorum Lam., herbicidal effect grade (Lolium multiflorum Lam.; 320 g/ha): 5 (Herbicidal ratio of 90% or more (almost completely withered)); F: Digitaria ciliaris, herbicidal effect (criteria 0-5) (Digitaria ciliaris [7]): 5 (Herbicidal ratio of 90% or more (almost completely withered))
2 | CON=C(C)CC1CC(OC(=O)C(C)(C)Oc2ccc(Cl)cc2)=C(c2c(C)cc(C)cc2C)C1=O (centres unmarked) [1-051] | 5 (Herbicidal ratio of 90% or more (almost completely withered)) | 5 (Herbicidal ratio of 90% or more (almost completely withered)) | 5 (Herbicidal ratio of 90% or more (almost completely withered)) | 5 (Herbicidal ratio of 90% or more (almost completely withered)) | 5 (Herbicidal ratio of 90% or more (almost completely withered)) | 0 (Herbicidal ratio of 5% or lower (almost no effect)) | 5 (Herbicidal ratio of 90% or more (almost completely withered)) | 4 (Herbicidal ratio of 70% or higher and lower than 90%) | 0 (Herbicidal ratio of 5% or lower (almost no effect)) | 5 (Herbicidal ratio of 90% or more (almost completely withered)) | 2 (Herbicidal ratio of 20% or higher and lower than 40%) | 5 (Herbicidal ratio of 90% or more (almost completely withered)) | 5 (Herbicidal ratio of 90% or more (almost completely withered)) | 5 (Herbicidal ratio of 90% or more (almost completely withered)) | 0 (Herbicidal ratio of 5% or lower (almost no effect)) | 5 (Herbicidal ratio of 90% or more (almost completely withered)) | 5 (Herbicidal ratio of 90% or more (almost completely withered)) | 
3 | CON=C(CC1CC(O)=C(c2c(C)cc(-n3cc(Cl)cn3)cc2C)C1=O)C(C)C (centres unmarked) [9-004] |  |  | 5 (Herbicidal ratio of 90% or more (almost completely withered)) |  | 4 (Herbicidal ratio of 70% or higher and lower than 90%) | 0 (Herbicidal ratio of 5% or lower (almost no effect)) |  |  |  | 5 (Herbicidal ratio of 90% or more (almost completely withered)) |  |  |  | 5 (Herbicidal ratio of 90% or more (almost completely withered)) | 0 (Herbicidal ratio of 5% or lower (almost no effect)) |  | 5 (Herbicidal ratio of 90% or more (almost completely withered)) | Effect on crop grade, b: directly sowed rice plant (rice; [8]): 0 (Herbicidal ratio of 5% or lower (almost no effect)); E herbicidal effect grade (Cyperus difformis; Table 24): 5 (Herbicidal ratio of 90% or more (almost completely withered)); Herbicidal effect grade, F: Digitaria ciliaris (Digitaria ciliaris [1]; [8]): 5 (Herbicidal ratio of 90% or more (almost completely withered)); Effect on crop grade, c: corn (corn; [8]): 0 (Herbicidal ratio of 5% or lower (almost no effect)); b (directly sowed rice plant) effect on crop grade ([2]; Table 24): 5 (Herbicidal ratio of 90% or more (almost completely withered)); Effect on crop grade, f: beet (beet [3]; [8]): 0 (Herbicidal ratio of 5% or lower (almost no effect)); Effect on crop grade, e: wheat (wheat; [8]): 0 (Herbicidal ratio of 5% or lower (almost no effect)); Herbicidal effect grade, H: Echinochloa crus-galli var. crus-galli [4, 8]: 5 (Herbicidal ratio of 90% or more (almost completely withered)); Herbicidal effect grade, M: Abutilon theophrasti (Abutilon theophrasti; [8]): 0 (Herbicidal ratio of 5% or lower (almost no effect)); Herbicidal effect grade, K: Lolium multiflorum Lam. (Lolium multiflorum Lam.; [8]): 4 (Herbicidal ratio of 70% or higher and lower than 90%)
4 | CC(CC1CC(O)=C(c2c(C)cc(C)cc2C)C1=O)=NOC(C)(C)C (centres unmarked) [1-053] | 4 (Herbicidal ratio of 70% or higher and lower than 90%) | 5 (Herbicidal ratio of 90% or more (almost completely withered)) | 4 (Herbicidal ratio of 70% or higher and lower than 90%) | 5 (Herbicidal ratio of 90% or more (almost completely withered)) | 3 (Herbicidal ratio of 40% or higher and lower than 70%) | 2 (Herbicidal ratio of 20% or higher and lower than 40%) | 5 (Herbicidal ratio of 90% or more (almost completely withered)) | 1 (Herbicidal ratio of 5% or higher and lower than 20%) | 0 (Herbicidal ratio of 5% or lower (almost no effect)) | 4 (Herbicidal ratio of 70% or higher and lower than 90%) | 0 (Herbicidal ratio of 5% or lower (almost no effect)) | 5 (Herbicidal ratio of 90% or more (almost completely withered)) | 1 (Herbicidal ratio of 5% or higher and lower than 20%) | 3 (Herbicidal ratio of 40% or higher and lower than 70%) | 0 (Herbicidal ratio of 5% or lower (almost no effect)) | 5 (Herbicidal ratio of 90% or more (almost completely withered)) | 3 (Herbicidal ratio of 40% or higher and lower than 70%) | 
